Assays:
Assay type in all cases: in vivo
Echinochloa oryzoides [1] = experiment: Soil sealing treatment, pot culture, fresh weight inhibition (Tables 149, 150)
Experimental: A method for investigating absolute number was employed, wherein whole seedlings of survival weeds were cut off with a blade along the soil surface, and the fresh weight of the weeds was weighed with an analytical balance. For dead weeds, the fresh weight thereof was zero.
Theoretical fresh weight inhibition rate of a combination of two active ingredients in each group was calculated by the Gowing method (E0=X+Y−X*Y/100), and then compared with an actually measured inhibition rate (E), thereby effect of the combination (hereafter referred to as combined effect) on weeds was evaluated: the value of E-E0, which was greater than 10%, corresponded to a synergistic effect, the value of E-E0, which was less than −10%, corresponded to an antagonistic effect, and the value of E-E0, which was from −10% to 10%, corresponded to an additional effect. […] Wherein, in the formula, X represented the fresh weight inhibition rate of the active ingredient A in a dosage of P, and Y represented the fresh weight inhibition rate of the active ingredient B in a dosage of Q.
Echinochloa crusgalli var zelayensis were collected in Huai'an of Jiangsu Province; Echinochloa caudate were collected in Pingluo of Ningxia Province; Echinochloa oryzoides were collected in Qiqiha'er of Heilongjiang Province.
The culture was carried out in a controllable sunlight greenhouse at 20 to 30° C., in natural light, and relative humidity of 57% to 72%. […] The test soil was placed quantitatively to ¾ of the pots and then watered from the bottom of the pots to completely wet the soil to saturation. The pretreated test weed seeds were uniformly sowed on the surface, then covered with 0.5-2 cm soil according to the seed size, and ready-for use 24 hours after sowing.
The technical materials were all dissolved in acetone, and diluted with an aqueous solution containing 0.1% emulsifier T-80. The dilution is performed as required.
A ratio of A to the active ingredient B and amounts thereof in each group depends on the characteristics and toxicity of the two agents, as well as the main application purpose of a corresponding formulation. Based on the pre-tests in this study, the dosage of A and the active ingredient B applied alone and in combination were shown in the tables. Water containing the solvent and emulsifier same with the above groups but free of the agents was used as a blank control.
3 pots with 30 weed seeds per pot were treated in one treatment with 4 replications per treatment.
The pots which were sowed and mulched were evenly placed on a platform with an area of 0.5 m^2, and a solution of agents was sprayed on soil surface thereof by the 3WP-2000-type walking spray tower at a dosage of […] and at a spray pressure of 0.3 MPa. After all the solution was sprayed, the valve was closed. After 30 seconds, the door of the spray tower was opened, and the nutritional bowl was taken out. Then the valve was opened, and the spray tube was cleaned by spraying 50 ml of water.
This section was same as the section 4) in the post-emergence treatment by performing foliage spray, and was not repeated herein.

Echinochloa oryzoides [2] = experiment: Post-emergence foliage spray, pot culture, fresh weight inhibition (Tables 1-48, 51-98, 101-148; 24 days)
How it was run: (§1)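 Pot-grown weeds were thinned to 15 per pot (45 per treatment) and sprayed on foliage at the 5–6-leaf stage for grasses or the 6–7-leaf stage for broadleaves. Agents were dissolved in acetone with 0.1% Tween-80 and applied at 450 kg/ha spray volume and 0.3 MPa. Plants were then kept in a greenhouse. Above-ground fresh weight of survivors, with dead plants counted as zero, gave inhibition versus a solvent/emulsifier blank.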

Capsella bursa-pastoris = experiment: Post-emergence foliage spray, pot culture, fresh weight inhibition (Tables 151-206; 20 days); details: 20 days
How it was run: (§2)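 Pre-germinated seeds (25° C soak 6 h, 28° C dark) grown in pots, thinned to 15 per pot; foliage-sprayed at 4~5-leaf (grasses) or 5~6-leaf (broadleaf) stage, 450 kg/ha spray volume, 0.3 MPa. Agents in acetone diluted with 0.1% Tween-80 water; solvent blank control. Above-ground fresh weight weighed, dead weeds scored zero.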

Amaranthus retroflexus [3] = experiment: as above; details: 20 days
How it was run: as §2

Eleusine indica = experiment: as above; details: 20 days
How it was run: (§3)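 Field-collected weeds grown in pots in a greenhouse (20-30° C., natural light, 57-72% RH), 15 per pot, 3 pots × 4 replicates. Single foliar spray at 4-5 leaves (grasses) or 5-6 leaves (broadleaf) with acetone/0.1% Tween-80 dilutions at 450 kg/ha, 0.3 MPa. Above-ground fresh weight inhibition versus solvent blank at 20 days.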

Digitaria sanguinalis = experiment: as above; details: 20 days
How it was run: as §3

Sinapis arvensis = experiment: as above; details: 20 days
How it was run: as §3

Alopecurus japonicus = experiment: as above; details: 20 days
How it was run: as §3

Chenopodium album = experiment: Post-emergence foliage spray, pot culture, fresh weight inhibition (Tables 1-48, 51-98, 101-148; 24 days); details: Table 95
How it was run: as §1

Amaranthus retroflexus [4] = experiment: as above
How it was run: (§4)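 Greenhouse pot plants (20–30 °C, natural light, 57–72% RH) were sprayed once on foliage at 450 kg/ha and 0.3 MPa, at the 5–6-leaf (grass) or 6–7-leaf (broadleaf) stage. Compounds were in acetone diluted with 0.1% Tween-80 water. Surviving shoots were weighed at 24 days; dead plants counted as zero.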

Acalypha australis = experiment: as above
How it was run: as §4

C[C@@H](Oc1nc(F)c(Cl)c(N)c1Cl)C(=O)[O-].[K+] [Compound A4, A1 potassium salt]
Control effect (%) of A applied alone in corresponding dose (Echinochloa oryzoides [1]; A 75 g a.i./ha): 18.9% | Control effect (%) of A applied alone in corresponding dose (Echinochloa oryzoides [1]; A 150 g a.i./ha): 42.5% | Control effect (%) of A applied alone in corresponding dose (Echinochloa oryzoides [2]; A 75 g a.i./ha): 52.6% | Control effect (%) of A applied alone in corresponding dose (Echinochloa oryzoides [2]; A 150 g a.i./ha): 74.7% | Control effect (%) of A applied alone in corresponding dose (Echinochloa oryzoides [2]; Table 101, 75 g a.i./ha): 52.6% | Control effect (%) of A applied alone in corresponding dose (Echinochloa oryzoides [2]; Table 101, 150 g a.i./ha): 74.7% | Control effect (%) of A applied alone in corresponding dose (Echinochloa oryzoides [2]; Table 102, 75 g a.i./ha): 52.6% | Control effect (%) of A applied alone in corresponding dose (Echinochloa oryzoides [2]; Table 102, 150 g a.i./ha): 74.7% | Control effect (%) of A applied alone in corresponding dose (Echinochloa oryzoides [2]; Table 104, 75 g a.i./ha): 52.6% | Control effect (%) of A applied alone in corresponding dose (Echinochloa oryzoides [2]; Table 104, 150 g a.i./ha): 74.7% | Control effect (%) of A applied alone in corresponding dose (Echinochloa oryzoides [2]; Table 106, 75 g a.i./ha): 52.6% | Control effect (%) of A applied alone in corresponding dose (Echinochloa oryzoides [2]; Table 106, 150 g a.i./ha): 74.7% | Control effect (%) of A applied alone in corresponding dose (Echinochloa oryzoides [2]; Table 107, 75 g a.i./ha): 52.6% | Control effect (%) of A applied alone in corresponding dose (Echinochloa oryzoides [2]; Table 107, 150 g a.i./ha): 74.7% | Control effect (%) of A applied alone in corresponding dose (Echinochloa oryzoides [2]; Table 108, 75 g a.i./ha): 52.6% | Control effect (%) of A applied alone in corresponding dose (Echinochloa oryzoides [2]; Table 108, 150 g a.i./ha): 74.7% | Control effect (%) of A applied alone in corresponding dose (Echinochloa oryzoides [2]; Table 109, 75 g a.i./ha): 52.6% | Control effect (%) of A applied alone in corresponding dose (Echinochloa oryzoides [2]; Table 109, 150 g a.i./ha): 74.7% | Control effect (%) of A applied alone in corresponding dose (Echinochloa oryzoides [2]; Table 110, 75 g a.i./ha): 52.6% | Control effect (%) of A applied alone in corresponding dose (Echinochloa oryzoides [2]; Table 110, 150 g a.i./ha): 74.7% | Control effect (%) of A applied alone in corresponding dose (Capsella bursa-pastoris; A 75 g a.i./ha): 44.2% | Control effect (%) of A applied alone in corresponding dose (Capsella bursa-pastoris; A 150 g a.i./ha): 67.2% | Control effect (%) of A applied alone in corresponding dose (Amaranthus retroflexus [3]; A 75 g a.i./ha): 26.7% | Control effect (%) of A applied alone in corresponding dose (Amaranthus retroflexus [3]; A 150 g a.i./ha): 57.2% | Control effect (%) of A applied alone in corresponding dose (Eleusine indica; A 75 g a.i./ha): 38.5% | Control effect (%) of A applied alone in corresponding dose (Eleusine indica; A 150 g a.i./ha): 69.2% | Control effect (%) of A applied alone in corresponding dose (Digitaria sanguinalis; A 75 g a.i./ha): 22.2% | Control effect (%) of A applied alone in corresponding dose (Digitaria sanguinalis; A 150 g a.i./ha): 56.4% | Control effect (%) of A applied alone in corresponding dose (Sinapis arvensis; A 75 g a.i./ha): 41.1% | Control effect (%) of A applied alone in corresponding dose (Sinapis arvensis; A 150 g a.i./ha): 65.9% | Control effect (%) of A applied alone in corresponding dose (Alopecurus japonicus; A 75 g a.i./ha): 24.9% | Control effect (%) of A applied alone in corresponding dose (Alopecurus japonicus; A 150 g a.i./ha): 47.2%

O=C(O)c1cc(Oc2ccc(C(F)(F)F)cc2Cl)ccc1[N+](=O)[O-] [acifluorfen-sodium]
Control effect (%) of B applied alone in corresponding dose (Chenopodium album; 37.5 g a.i./ha): 2.0% | Control effect (%) of B applied alone in corresponding dose (Chenopodium album; 75 g a.i./ha): 13.7% | Control effect (%) of B applied alone in corresponding dose (Chenopodium album; 150 g a.i./ha): 45.0% | Control effect (%) of B applied alone in corresponding dose (Chenopodium album; 300 g a.i./ha): 81.0% | Control effect (%) of B applied alone in corresponding dose (Amaranthus retroflexus [4]; acifluorfen-sodium 37.5 g a.i./ha): 4.4% | Control effect (%) of B applied alone in corresponding dose (Amaranthus retroflexus [4]; acifluorfen-sodium 75 g a.i./ha): 10.3% | Control effect (%) of B applied alone in corresponding dose (Amaranthus retroflexus [4]; acifluorfen-sodium 150 g a.i./ha): 45.1% | Control effect (%) of B applied alone in corresponding dose (Amaranthus retroflexus [4]; acifluorfen-sodium 300 g a.i./ha): 85.0% | Control effect (%) of B applied alone in corresponding dose (Acalypha australis; B 37.5 g a.i./ha): 5.8% | Control effect (%) of B applied alone in corresponding dose (Acalypha australis; B 75 g a.i./ha): 11.6% | Control effect (%) of B applied alone in corresponding dose (Acalypha australis; B 150 g a.i./ha): 46.6% | Control effect (%) of B applied alone in corresponding dose (Acalypha australis; B 300 g a.i./ha): 85.3%
